Test results reported in patent publication US8129355B2, “Ketone ligands for modulating the expression of exogenous genes via an ecdysone receptor complex” (priority 2002, dated 2012).

Columns and labels:
[1] = molecular target: T1, GAL4 DBD (1-147)-CfEcR(DEF)/VP16AD-βRXREF-LmUSPEF (Choristoneura fumiferana, UniProt O77240); test: 27-63 assay: luciferase reporter gene expression in stable CHO cell clone 27-63; conditions: for 27-63 Rel Max FI: maximum fold induction at any concentration relative to that of GS-E ligand; for CC50: read-out: 27-63 LC50, average, dose response, three-parameter logistic model; for Fold Induction Average, 27-63 Assay (33 μM): single dose 33 μM, RLU ligand treated / RLU DMSO treated cells
T1 sequence (O77240 191-513): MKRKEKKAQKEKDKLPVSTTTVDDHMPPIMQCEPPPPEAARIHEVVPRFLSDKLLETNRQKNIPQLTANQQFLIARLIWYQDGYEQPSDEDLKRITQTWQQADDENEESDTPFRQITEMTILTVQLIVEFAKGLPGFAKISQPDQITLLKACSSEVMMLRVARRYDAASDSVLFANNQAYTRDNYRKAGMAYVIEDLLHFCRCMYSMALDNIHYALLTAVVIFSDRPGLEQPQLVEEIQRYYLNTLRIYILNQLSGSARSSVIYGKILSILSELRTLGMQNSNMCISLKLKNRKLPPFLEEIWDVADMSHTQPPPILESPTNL
T1 sequence (P28702 296-455 partner limits assumed): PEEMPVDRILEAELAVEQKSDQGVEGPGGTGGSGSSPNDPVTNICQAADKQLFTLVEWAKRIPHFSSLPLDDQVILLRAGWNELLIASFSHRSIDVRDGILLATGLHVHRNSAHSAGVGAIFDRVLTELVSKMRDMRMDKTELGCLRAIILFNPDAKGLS
Excerpt: GAL4 DBD (1-147)-CfEcR(DEF)/VP16AD-βRXREF-LmUSPEF: The wild-type D, E, and F domains from spruce budworm Choristoneura fumiferana EcR (“CfEcR-DEF”; SEQ ID NO: 1) were fused to a GAL4 DNA binding domain (“Gal4 DBD1-147”; nucleotides 31 to 471 of SEQ ID NO: 2) and placed under the control of a phosphoglycerate kinase promoter (“PGK”; SEQ ID NO: 3). Helices 1 through 8 of the EF domains from Homo sapiens RXRβ and helices 9 through 12 of the EF domains of Locusta migratoria Ultraspiracle Protein (“HsRXRβ-EF-LmUSP-EF”; SEQ ID NO: 4) were fused to the transactivation domain from VP16 (“VP16AD”; SEQ ID NO: 5) and placed under the control of an elongation factor-1α promoter (“EF-1α”; SEQ ID NO: 6). Five consensus GAL4 response element binding sites (“5XGAL4RE”; comprising 5 copies of a GAL4RE comprising SEQ ID NO: 7) were fused to a synthetic TATA minimal promoter (SEQ ID NO: 8) and placed upstream of the luciferase reporter gene (SEQ ID NO: 9).
CHO cells were transiently transfected with transcription cassettes for GAL4 DBD (1-147) CfEcR(DEF) and for VP16AD βRXREF-LmUSPEF controlled by ubiquitously active cellular promoters (PGK and EF-1α, respectively) on a single plasmid. Stably transfected cells were selected by Zeocin resistance. Individually isolated CHO cell clones were transiently transfected with a GAL4 RE-luciferase reporter (pFR Luc). 27-63 clone was selected using Hygromycin.
Cells were trypsinized and diluted to a concentration of 2.5×10^4 cells mL. 100 μL of cell suspension was placed in each well of a 96 well plate and incubated at 37° C. under 5% CO2 for 24 h. Ligand stock solutions were prepared in DMSO and diluted 300 fold for all treatments. Dose response testing consisted of 8 concentrations ranging from 33 μM to 0.01 μM.
Luciferase reporter gene expression was measured 48 h after cell treatment using Bright-Glo™ Luciferase Assay System from Promega (E2650). Luminescence was detected at room temperature using a Dynex MLX microtiter plate luminometer.
Fold inductions were calculated from single dose testing by dividing relative light units (RLU) in ligand treated cells by RLU in DMSO treated cells. BC50s were calculated from dose response data using a three-parameter logistic model.

[2] = molecular target: T2, GAL4 DBD-CfEcR(DEF)/VP16AD-MmRXRE (Choristoneura fumiferana, UniProt O77240); test: cell-based
T2 sequence (O77240 1-513): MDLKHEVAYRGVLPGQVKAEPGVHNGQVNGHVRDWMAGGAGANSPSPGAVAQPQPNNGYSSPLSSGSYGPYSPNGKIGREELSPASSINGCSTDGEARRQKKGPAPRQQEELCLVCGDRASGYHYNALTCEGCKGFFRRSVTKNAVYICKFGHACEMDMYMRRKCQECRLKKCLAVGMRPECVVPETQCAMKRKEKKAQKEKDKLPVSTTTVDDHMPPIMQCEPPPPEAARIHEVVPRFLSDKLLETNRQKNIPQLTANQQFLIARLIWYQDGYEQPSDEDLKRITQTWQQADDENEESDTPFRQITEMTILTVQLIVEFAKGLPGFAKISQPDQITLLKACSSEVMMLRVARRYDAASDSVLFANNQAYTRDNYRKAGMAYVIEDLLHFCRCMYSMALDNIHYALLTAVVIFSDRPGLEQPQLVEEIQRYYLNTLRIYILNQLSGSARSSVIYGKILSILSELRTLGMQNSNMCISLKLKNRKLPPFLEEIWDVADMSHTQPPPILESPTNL
In short: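 Stable CHO clone 13B3 expressing GAL4 DBD-CfEcR(DEF) and VP16AD-mouse RXR(DE) with GAL4 RE-luciferase reporter. Ligands tested at 8 concentrations, 33–0.01 μM; luciferase read 48 h after treatment. Fold induction versus DMSO; BC50 from three-parameter logistic fit.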

[3] = molecular target: T3, Bombyx mori EcR (VP16 fusion, switch construct CVBE) with 6XEcRE LacZ reporter (Bombyx mori, UniProt P49881); test: Z3 assay: β-galactosidase (LacZ) reporter gene fold induction in stably transformed human 293 kidney cells (clone Z3); format: cell-based; conditions: for CC50: average, dose response, three-parameter logistic model, read-out: Z3 LC50; for Z3 Rel Max FI: maximum fold induction at any concentration relative to that of GS-E ligand
T3 construct: expressed in transfected cells; host or cells: Human 293 kidney (HEK-293) cells, retrovirally infected, clone Z3
T3 sequence (P49881 86-606 limits assumed): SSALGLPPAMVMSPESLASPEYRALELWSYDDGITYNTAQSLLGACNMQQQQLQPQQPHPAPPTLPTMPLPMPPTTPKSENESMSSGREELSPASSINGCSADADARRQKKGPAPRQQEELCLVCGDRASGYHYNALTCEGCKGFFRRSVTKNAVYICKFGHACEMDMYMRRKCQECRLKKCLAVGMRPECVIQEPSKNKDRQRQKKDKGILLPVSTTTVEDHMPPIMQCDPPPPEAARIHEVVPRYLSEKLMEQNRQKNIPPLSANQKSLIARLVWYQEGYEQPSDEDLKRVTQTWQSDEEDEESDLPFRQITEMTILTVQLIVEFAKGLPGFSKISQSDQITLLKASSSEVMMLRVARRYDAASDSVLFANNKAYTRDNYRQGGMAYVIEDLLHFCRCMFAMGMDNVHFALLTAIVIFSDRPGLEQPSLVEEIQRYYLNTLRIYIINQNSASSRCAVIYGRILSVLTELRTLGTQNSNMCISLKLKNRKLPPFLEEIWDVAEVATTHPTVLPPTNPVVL
T3 sequence (P19793 1-462 partner): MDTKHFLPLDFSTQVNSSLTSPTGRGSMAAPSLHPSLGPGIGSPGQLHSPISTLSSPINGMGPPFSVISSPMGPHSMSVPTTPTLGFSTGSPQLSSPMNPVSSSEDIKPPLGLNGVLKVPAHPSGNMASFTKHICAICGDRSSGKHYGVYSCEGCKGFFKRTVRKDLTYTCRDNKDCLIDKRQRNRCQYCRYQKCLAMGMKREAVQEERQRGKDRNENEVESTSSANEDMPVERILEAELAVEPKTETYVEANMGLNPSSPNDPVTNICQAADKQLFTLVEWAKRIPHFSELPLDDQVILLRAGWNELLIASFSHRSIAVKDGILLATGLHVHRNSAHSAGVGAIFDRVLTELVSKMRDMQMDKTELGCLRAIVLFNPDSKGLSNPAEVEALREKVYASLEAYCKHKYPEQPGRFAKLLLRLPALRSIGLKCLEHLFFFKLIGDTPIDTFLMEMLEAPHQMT
In short: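 β-Galactosidase read 48 h after dosing by bioluminescent assay; ligand added at 33 μM with DMSO held at 0.03%. The cells are stable 293 clone Z3, expressing a CMV-driven VP16 fusion of Bombyx mori EcR residues 26-546 plus six EcRE copies upstream of lacZ.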

[4] = molecular target: T4, Gal4 DBD/AaEcR (DEF) with VP16-βRXR-E (Aedes aegypti, UniProt P49880); test: cell-based; format: cell-based; conditions: for Fold Induction Average, AA_3T3 Assay (33 μM): single dose 33 μM, RLU ligand treated / RLU DMSO treated cells; for LC50 (half-maximal ligand concentration for reporter induction): average, dose response 33 μM to 0.01 μM, three-parameter logistic model, read-out: AA_3T3 LC50; for AA_3T3 Rel Max FI: maximum fold induction at any concentration relative to that of GS-E ligand
T4 construct: The wildtype D, E, and F domains from mosquito Aedes aegypti EcR (“AaEcR-DEF”); expressed in transfected cells; host or cells: 3T3 cells, transient transfection (Superfect)
T4 sequence (P28704 286-520 A311G/G315S/G445S/I449V): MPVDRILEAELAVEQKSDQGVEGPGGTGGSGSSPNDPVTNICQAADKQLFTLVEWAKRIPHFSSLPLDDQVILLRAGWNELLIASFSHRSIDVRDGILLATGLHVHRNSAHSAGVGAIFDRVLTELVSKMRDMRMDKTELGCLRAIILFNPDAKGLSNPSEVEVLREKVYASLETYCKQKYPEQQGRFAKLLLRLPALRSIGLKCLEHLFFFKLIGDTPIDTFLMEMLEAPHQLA
T4 sequence (P49880 405-776): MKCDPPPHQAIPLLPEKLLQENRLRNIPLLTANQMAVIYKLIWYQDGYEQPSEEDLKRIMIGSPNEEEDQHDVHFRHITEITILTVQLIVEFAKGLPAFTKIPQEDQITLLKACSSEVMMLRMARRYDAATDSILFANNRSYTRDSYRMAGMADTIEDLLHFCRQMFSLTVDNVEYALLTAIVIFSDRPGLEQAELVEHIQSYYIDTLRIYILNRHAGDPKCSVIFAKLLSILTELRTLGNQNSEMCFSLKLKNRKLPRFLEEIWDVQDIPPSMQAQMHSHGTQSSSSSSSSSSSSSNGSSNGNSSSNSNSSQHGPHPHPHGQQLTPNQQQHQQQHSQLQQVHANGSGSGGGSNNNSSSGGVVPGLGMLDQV
Description: 3T3 cells were trypsinized and plated at 2.5×10^3 cells/well on a 96-well plate. After incubation for 24 h at 37° C. under 5% CO2, cells were transfected with the Gal4 DBD/AaEcR (DEF) gene expression cassette and the reporter plasmid, pFRLuc, containing a 5XGAL4 response element and the firefly luciferase gene in serum free media using Superfect (Qiagen). After transfection for 4 h at 37° C., the cells were treated with ligand in serum media. […] Single dose testing was performed at 33 μM.

[5] = single dose 33 μM, ligand treated / DMSO treated cells

SMILES | 27-63 Rel Max FI [1] | CC50 [1] [µM] | Fold Induction Average, Z3 Assay (33 μM) [3, 5] | Fold Induction Average, AA_3T3 Assay (33 μM) [4] | CC50 [3] [µM] | Z3 Rel Max FI [3] | also measured
COc1cccc(C(=O)NC(C)(C(=O)c2ccc(F)c(C)c2)C(C)C)c1C (centres unmarked) [Example 56] | 0.06 | > 33 | – | – | – | – | EC50 [2]: > 33 µM; 13B3 Rel Max FI ([2]; maximum fold induction at any concentration relative to that of GS-E ligand): 0.00
COc1cccc(C(=O)NC(C)(C(=O)c2cc(C)cc(C)c2)c2ccc(F)cc2)c1C (centres unmarked) [Example 73] | – | – | 4 | 1 | – | – | –
Cc1cc(C)cc(C(=O)C2(NC(=O)c3ccc4c(c3)COCO4)CCCCC2)c1 [Example 83] | 0.70 | 7.06 | – | – | 6.15 | 0.41 | –
CCc1c(C(=O)NC2(C(=O)c3cc(C)cc(C)c3)CCCC2)ccc2c1OCCO2 [Example 84] | 0.82 | 1.02 | – | – | 1.59 | 0.91 | –
Cc1cc(C)cc(C(=O)C2(NC(=O)c3ccc4c(c3C)OCO4)CCCC2)c1 [Example 85] | 0.94 | 3.86 | – | – | 4.76 | 0.67 | –
Cc1cc(C)cc(C(=O)C2(NC(=O)c3ccc4c(c3)OCCO4)CCCC2)c1 [Example 86] | 0.80 | 4.88 | – | – | 5.49 | 0.61 | –
Cc1cc(C)cc(C(=O)C2(NC(=O)c3ccc4c(c3)COCO4)CCCC2)c1 [Example 87] | 0.53 | 18.7 | – | – | 9.46 | 0.17 | –
Cc1cc(C)cc(C(=O)C2(NC(=O)c3ccccc3C)CCCC2)c1 [Example 89] | 0.07 | > 33 | – | 78 | – | – | LC50 (half-maximal ligand concentration for reporter induction) [4]: > 33 µM; AA_3T3 Rel Max FI [4]: 0.00
CCC(=O)C(C)(C)NC(=O)c1ccccc1C [Example 124] | – | – | – | 2 | – | – | –
CCC(=O)C(C)(C)NC(=O)c1ccc(CC)cc1 [Example 125] | – | – | – | 1 | – | – | –
CCC(=O)C1(NC(=O)c2ccccc2C)CCCC1 [Example 132] | – | – | – | 1 | – | – | –
COc1cccc(C(=O)NC2(C(=O)c3cc(C)cc(C)c3)CCCC2)c1 [Example 137] | 0.21 | > 33 | – | 115 | – | – | LC50 (half-maximal ligand concentration for reporter induction) [4]: > 33 µM; AA_3T3 Rel Max FI [4]: 0.01
Cc1ccccc1C(=O)NC1(C(=O)c2ccccc2)CCCC1 [Example 140] | 0.00 | > 33 | – | – | > 33 | 0.00 | –
O=C(NC1(C(=O)c2ccccc2)CCCC1)c1ccc2c(c1)OCO2 [Example 142] | 0.00 | > 33 | – | – | > 33 | 0.00 | –
COc1cccc(C(=O)NC2(C(=O)c3cc(C)cc(C)c3)CCNCC2)c1C [Example 147] | – | – | – | – | – | – | fold induction at 33 µM ([3]; single dose 33 μM, ligand treated / DMSO treated cells, read-out: Fold Induction Average, Z3 Assay (33 μM)): 1; fold induction at 33 µM ([1]; CHO, read-out: Fold Induction Average, 27-63 Assay (33 μM)): 1
CCOC(=O)C(=O)N1CCC(NC(=O)c2cccc(OC)c2C)(C(=O)c2cc(C)cc(C)c2)CC1 [Example 150] | – | – | 3 | – | – | – | Fold Induction Average, 27-63 Assay (33 μM) [1]: 1
COc1cccc(C(=O)NC2(C(=O)c3cc(C)cc(C)c3)CCN(S(C)(=O)=O)CC2)c1C [Example 151] | – | – | 3 | – | – | – | Fold Induction Average, 27-63 Assay (33 μM) [1]: 1
CCOC(=O)CN1CCC(NC(=O)c2cccc(OC)c2C)(C(=O)c2cc(C)cc(C)c2)CC1 [Example 152] | – | – | 6 | – | – | – | Fold Induction Average, 27-63 Assay (33 μM) [1]: 3
COc1cccc(C(=O)NC2(C(=O)c3cc(C)cc(C)c3)CCN(C(=O)OC(C)C)CC2)c1C [Example 158] | – | – | 4 | 1 | – | – | –
COc1cccc(C(=O)NC2(C(=O)c3cc(C)cc(C)c3)CCN(CC#N)CC2)c1C [Example 159] | – | – | 2 | – | – | – | Fold Induction Average, 27-63 Assay (33 μM) [1]: 1
